Assay [1] has as its target Alkaline phosphatase, placental type (Homo sapiens, UniProt P05187). The assay can be described thus: human placental alkaline phosphatase inhibition – biochemical, luminescence, confirmation (AID 1512). The assay is classed as functional.
Assay [2] can be described thus: Luminescence Cell-Based Dose Response HTS to Identify Activators of Luciferase Translation or Activity in H4 […] Cells. [Related pubchem assays: 1829 (Project Summary), 1814 (Primary HTS)]. Type of assay: functional.
The target in assay [3] is T1, Nuclear receptor subfamily 0 group B member 1 (Homo sapiens, UniProt P51843).
T1 sequence (P51843 whole entry): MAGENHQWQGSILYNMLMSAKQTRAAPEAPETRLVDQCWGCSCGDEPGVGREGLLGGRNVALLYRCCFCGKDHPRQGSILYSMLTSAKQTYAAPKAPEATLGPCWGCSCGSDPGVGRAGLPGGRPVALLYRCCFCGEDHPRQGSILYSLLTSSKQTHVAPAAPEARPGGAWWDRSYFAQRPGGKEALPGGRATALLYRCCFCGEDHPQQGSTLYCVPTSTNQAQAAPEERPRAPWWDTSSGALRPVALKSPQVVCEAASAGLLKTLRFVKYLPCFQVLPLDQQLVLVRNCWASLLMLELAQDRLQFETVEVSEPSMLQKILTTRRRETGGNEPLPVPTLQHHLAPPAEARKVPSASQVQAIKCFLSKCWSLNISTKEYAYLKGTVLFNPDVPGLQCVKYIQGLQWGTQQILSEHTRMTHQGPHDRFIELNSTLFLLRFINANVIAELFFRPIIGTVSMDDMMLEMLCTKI
Description: Luminescence-based cell-based high throughput dose response assay for inhibitors of the orphan nuclear receptor subfamily 0, group B, member 1 (DAX1; NR0B1). [Related pubchem assays (depositor defined):AID504766, AID504790]. The assay is classed as functional.

The test system of another assay is HEK293. Description: cells. Conditions: Homo sapiens. The assay is classed as functional, cell-based.
Another assay has as its system Escherichia coli. The assay can be described thus: microbe, parasite or virus in culture.
Assay [4] deals with T2, G-protein coupled receptor 35 (Homo sapiens, UniProt Q9HC97). The assay can be described thus: SAR analysis of Antagonists of the GPR35 Receptor using an Image-Based Assay - Set 6. [Related pubchem assays (depositor defined):AID2013, AID2026]. Type of assay: functional.
T2 sequence (Q9HC97 whole entry): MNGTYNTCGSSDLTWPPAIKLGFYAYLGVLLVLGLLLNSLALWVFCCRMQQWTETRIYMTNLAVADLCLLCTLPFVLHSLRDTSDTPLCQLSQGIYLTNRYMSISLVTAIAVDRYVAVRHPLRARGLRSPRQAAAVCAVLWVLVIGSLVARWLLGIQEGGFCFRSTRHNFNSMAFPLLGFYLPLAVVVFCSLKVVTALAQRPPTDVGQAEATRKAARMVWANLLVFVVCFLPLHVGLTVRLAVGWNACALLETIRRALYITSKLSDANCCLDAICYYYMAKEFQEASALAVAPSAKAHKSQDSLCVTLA
The target of assay [5] is G-protein coupled receptor 55 (Homo sapiens, UniProt Q9Y2T6). The assay can be described thus: SAR Analysis of Selective Antagonists of GPR55 using an Image-Based Assay - Set 4. [Related pubchem assays (depositor defined):AID2013, AID2026]. Type of assay: functional.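 Also: antagonism of response to 5 µM lysophosphatidylinositol agonist.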
Sequence of G-protein coupled receptor 55 (Q9Y2T6 whole entry): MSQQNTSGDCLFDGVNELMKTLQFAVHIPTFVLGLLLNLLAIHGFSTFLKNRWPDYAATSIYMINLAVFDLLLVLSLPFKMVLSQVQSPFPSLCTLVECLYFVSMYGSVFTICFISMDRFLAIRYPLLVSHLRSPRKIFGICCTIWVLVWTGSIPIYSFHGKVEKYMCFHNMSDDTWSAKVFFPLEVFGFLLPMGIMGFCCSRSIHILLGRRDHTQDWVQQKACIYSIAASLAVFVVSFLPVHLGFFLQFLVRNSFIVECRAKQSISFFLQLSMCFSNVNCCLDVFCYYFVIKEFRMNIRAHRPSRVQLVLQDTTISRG
In assay [6] the target is T3, Cannabinoid receptor 1 (Homo sapiens, UniProt P21554). Description: SAR analysis of agonists of the Cannabinoid Receptor 1 using an Image-Based Assay - Set 4. [Related pubchem assays (depositor defined):AID2013, AID2026]. Type of assay: functional.
T3 sequence (P21554 whole entry): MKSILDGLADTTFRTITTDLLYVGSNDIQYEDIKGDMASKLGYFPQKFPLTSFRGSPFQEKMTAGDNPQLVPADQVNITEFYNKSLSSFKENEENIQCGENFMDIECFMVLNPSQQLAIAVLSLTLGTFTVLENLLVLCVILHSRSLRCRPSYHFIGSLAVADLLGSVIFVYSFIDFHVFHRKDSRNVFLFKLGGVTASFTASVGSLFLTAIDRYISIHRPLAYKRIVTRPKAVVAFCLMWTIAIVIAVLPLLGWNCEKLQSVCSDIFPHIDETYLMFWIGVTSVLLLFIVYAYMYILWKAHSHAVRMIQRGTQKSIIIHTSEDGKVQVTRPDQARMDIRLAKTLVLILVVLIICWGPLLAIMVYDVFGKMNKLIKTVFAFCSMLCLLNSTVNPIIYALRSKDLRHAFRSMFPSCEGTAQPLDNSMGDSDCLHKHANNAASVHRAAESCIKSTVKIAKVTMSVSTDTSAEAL
Assay [7] deals with T2, G-protein coupled receptor 35. The assay can be described thus: SAR analysis of Agonists of the GPR35 Receptor using an Image-Based Assay - Set 4. [Related pubchem assays (depositor defined):AID2013, AID2026]. Type of assay: functional.
In assay [8] the target is T4, Cannabinoid receptor 2 (Homo sapiens, UniProt P34972). Description: SAR analysis of antagonists of the Cannabinoid Receptor 2 using an Image-Based Assay - Set 3. [Related pubchem assays (depositor defined):AID2013, AID2026]. The assay is classed as functional.
T4 sequence (P34972 whole entry): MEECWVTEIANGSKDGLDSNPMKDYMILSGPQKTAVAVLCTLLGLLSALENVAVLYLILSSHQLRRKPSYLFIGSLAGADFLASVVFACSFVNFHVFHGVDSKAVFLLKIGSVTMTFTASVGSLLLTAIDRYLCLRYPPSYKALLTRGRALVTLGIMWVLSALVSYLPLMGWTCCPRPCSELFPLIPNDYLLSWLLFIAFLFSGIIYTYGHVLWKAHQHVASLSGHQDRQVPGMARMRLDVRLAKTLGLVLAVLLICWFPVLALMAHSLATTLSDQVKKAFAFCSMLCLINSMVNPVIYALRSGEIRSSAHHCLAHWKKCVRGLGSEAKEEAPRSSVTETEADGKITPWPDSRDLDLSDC
Assay [9] has as its target T4, Cannabinoid receptor 2. The assay can be described thus: SAR analysis of agonists of the Cannabinoid Receptor 2 using an Image-Based Assay - Set 3. [Related pubchem assays (depositor defined):AID2013, AID2026]. The assay is classed as functional.
The target of assay [10] is T3, Cannabinoid receptor 1. Description: SAR analysis of antagonists of the Cannabinoid Receptor 1 using an Image-Based Assay - Set 4. [Related pubchem assays (depositor defined):AID2013, AID2026]. The assay is classed as functional.
For assay [11], the target named is T5, CAAX prenyl protease 2 (Saccharomyces cerevisiae S288c, UniProt Q03530).
T5 sequence (Q03530 whole entry): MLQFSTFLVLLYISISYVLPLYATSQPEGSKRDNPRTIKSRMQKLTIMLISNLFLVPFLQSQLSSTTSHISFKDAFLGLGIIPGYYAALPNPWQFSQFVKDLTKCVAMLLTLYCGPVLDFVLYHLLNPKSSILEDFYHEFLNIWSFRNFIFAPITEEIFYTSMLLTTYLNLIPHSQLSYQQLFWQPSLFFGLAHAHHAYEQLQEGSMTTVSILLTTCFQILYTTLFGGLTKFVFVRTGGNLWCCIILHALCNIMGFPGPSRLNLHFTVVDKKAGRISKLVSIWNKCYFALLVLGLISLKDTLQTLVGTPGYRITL
The assay is classed as biochemical.

The target in the next assay is Trypsin (Sus scrofa, UniProt P00761). The assay can be described thus: trypsin protease activity blockade – biochemical, quenched peptide fluorescence, cherry-pick, selectivity assay for Rce1 protease inhibitor project, dose response (AID 488789).
Sequence of Trypsin (P00761 whole entry): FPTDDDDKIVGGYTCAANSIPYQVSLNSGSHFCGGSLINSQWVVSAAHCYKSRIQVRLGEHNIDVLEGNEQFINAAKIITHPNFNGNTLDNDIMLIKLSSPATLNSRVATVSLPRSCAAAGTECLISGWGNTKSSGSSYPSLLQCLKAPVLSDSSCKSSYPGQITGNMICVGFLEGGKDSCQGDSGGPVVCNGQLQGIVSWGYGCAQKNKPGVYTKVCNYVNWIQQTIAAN
The target of assay [12] is T6, CAAX prenyl protease 2 (Homo sapiens, UniProt Q9Y256).
T6 sequence (Q9Y256 whole entry): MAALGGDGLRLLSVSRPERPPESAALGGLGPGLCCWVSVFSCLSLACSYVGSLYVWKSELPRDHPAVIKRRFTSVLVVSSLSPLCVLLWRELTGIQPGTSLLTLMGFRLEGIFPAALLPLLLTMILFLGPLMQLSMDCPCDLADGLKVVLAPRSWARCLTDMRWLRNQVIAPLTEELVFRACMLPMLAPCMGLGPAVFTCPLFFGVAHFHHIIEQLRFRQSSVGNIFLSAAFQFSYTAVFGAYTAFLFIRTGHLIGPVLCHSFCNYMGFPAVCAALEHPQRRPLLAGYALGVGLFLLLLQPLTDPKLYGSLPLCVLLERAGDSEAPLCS
The assay can be described thus: inhibition of Ras-converting CAAX protease Rce1 – biochemical, yeast membranes, quenched-peptide fluorescence, cherry-pick, dose response (AID 588849).

The term IC50 denotes the concentration at which inhibition is half-maximal. By EC50 is commonly meant the concentration giving half of the maximal effect. As usually defined, the AC50 is the concentration at which the activity in the assay is half-maximal.

Active and inactive are the calls of the source.

Sequence of Alkaline phosphatase, placental type (P05187 whole entry): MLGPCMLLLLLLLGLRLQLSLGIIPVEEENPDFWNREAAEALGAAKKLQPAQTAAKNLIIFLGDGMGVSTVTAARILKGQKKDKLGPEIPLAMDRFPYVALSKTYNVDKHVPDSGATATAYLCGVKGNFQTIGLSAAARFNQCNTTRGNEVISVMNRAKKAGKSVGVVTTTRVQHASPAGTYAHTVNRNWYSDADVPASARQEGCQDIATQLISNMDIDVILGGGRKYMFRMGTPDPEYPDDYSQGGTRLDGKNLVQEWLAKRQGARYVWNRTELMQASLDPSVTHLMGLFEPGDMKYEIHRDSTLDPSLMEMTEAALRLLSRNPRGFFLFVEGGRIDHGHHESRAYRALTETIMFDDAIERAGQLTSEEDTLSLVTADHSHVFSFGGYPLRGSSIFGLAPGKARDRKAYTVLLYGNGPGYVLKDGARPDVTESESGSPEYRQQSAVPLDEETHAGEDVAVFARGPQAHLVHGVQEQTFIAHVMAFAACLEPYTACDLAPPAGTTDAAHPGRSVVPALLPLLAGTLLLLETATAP

As to `Cn1cc(Br)c(C(=O)NNC(=O)c2cccc(Br)c2)n1`, the IC50 in assay [1] is > 100 µM (inactive).

As for `O=C(Nc1ccc(F)cc1)/C(Cl)=C/c1ccccc1`, in assay [2], the concentration for a half-maximal effect (EC50) was 5.09 µM (active). In addition, the IC50 (in assay [3]; in the assay on HEK293) was > 67.5 µM (inactive) each time.

For the compound `Cc1nc(-c2cccc(S(=O)(=O)N3CCOCC3)c2)cs1`, in the assay on Escherichia coli, the AC50 is 35.7 µM (active).

Take `CC(C)NC(=O)c1cc2c(=O)n3ccccc3nc2n(C2CCCC2)c1=N`: the IC50 (in assay [4]; in [5]; on Cannabinoid receptor 2 [8]; at Cannabinoid receptor 1 [10]) was > 32 µM (inactive) each time. The EC50 was > 32 µM (inactive) at Cannabinoid receptor 1 [6], > 32 µM (inactive) in [7] and 9.06 µM (active) on Cannabinoid receptor 2 [9].

For the compound `Cc1nnc(-c2ccc(Cl)cc2)c2cn(-c3ccccc3)nc12`, the IC50 in assay [4] was > 32 µM (inactive); in assay [5], 19.2 µM (inactive); on Cannabinoid receptor 2 [8] it was 19.5 µM (inactive); on Cannabinoid receptor 1 [10] it was 3.58 µM (active). In addition, the EC50 (on Cannabinoid receptor 1 [6]; in assay [7]; at Cannabinoid receptor 2 [9]) was > 32 µM (inactive) each time.

Take `COc1ccc(-c2nnc(C)c3nn(-c4ccc(Cl)cc4)cc23)cc1`: the IC50 in assay [4] is > 32 µM (inactive); in assay [5] it was 3.56 µM (active); on Cannabinoid receptor 2 [8] it was 13.2 µM (inactive); on Cannabinoid receptor 1 [10], 1.47 µM (active). Besides, the EC50 (at Cannabinoid receptor 1 [6]; in assay [7]; on Cannabinoid receptor 2 [9]) was > 32 µM (inactive) each time.

Regarding `CCn1c2ccccc2c2cc(/C=N/NC(=O)c3ccc(O)cc3)ccc21`, the AC50 on CAAX prenyl protease 2 [11] is 21.6 µM (active); on Trypsin, 4.51 µM (active); at CAAX prenyl protease 2 [12], 40.3 µM (active).

Consider `Fc1ccccc1/C=N/Nc1cc(N2CCCCC2)ncn1`, for which the IC50 (in [3]; in the assay on HEK293) was > 67.5 µM (inactive) each time.

Values taken from ChEMBL document CHEMBL1201862, “PubChem BioAssay data set” (2004).
